The results in this text go back to PMC3136713, “Health-Beneficial Phenolic Aldehyde in Antigonon leptopus Tea” (Evidence-based Complementary and Alternative Medicine : eCAM, 2010).

Test [1] addresses T1, COX-1 (Ovis aries, UniProt P05979).
T1 construct: gene PTGS1
T1 sequence (P05979 25-600): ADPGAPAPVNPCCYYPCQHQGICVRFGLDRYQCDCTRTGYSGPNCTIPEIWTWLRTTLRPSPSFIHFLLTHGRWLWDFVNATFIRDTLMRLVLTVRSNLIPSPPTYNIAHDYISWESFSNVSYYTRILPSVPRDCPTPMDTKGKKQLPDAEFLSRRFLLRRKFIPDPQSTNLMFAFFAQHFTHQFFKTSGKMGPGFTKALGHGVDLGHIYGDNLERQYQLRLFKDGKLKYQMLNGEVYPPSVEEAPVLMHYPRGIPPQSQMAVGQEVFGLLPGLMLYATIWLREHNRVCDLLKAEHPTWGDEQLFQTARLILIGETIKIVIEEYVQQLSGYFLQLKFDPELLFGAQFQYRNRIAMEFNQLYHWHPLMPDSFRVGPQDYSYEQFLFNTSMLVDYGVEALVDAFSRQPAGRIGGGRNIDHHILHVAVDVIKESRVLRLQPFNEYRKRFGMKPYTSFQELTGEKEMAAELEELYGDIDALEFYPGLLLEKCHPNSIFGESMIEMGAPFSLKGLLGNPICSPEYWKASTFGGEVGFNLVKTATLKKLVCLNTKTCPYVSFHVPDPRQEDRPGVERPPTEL
Kind of test: O2 uptake cyclooxygenase assay, ram seminal vesicle COX-1; […] inhibition at […]. The test is classed as biochemical.

Test [2] addresses T2, COX-2 (Homo sapiens, UniProt P35354).
T2 construct: gene PTGS2
T2 sequence (P35354 18-604): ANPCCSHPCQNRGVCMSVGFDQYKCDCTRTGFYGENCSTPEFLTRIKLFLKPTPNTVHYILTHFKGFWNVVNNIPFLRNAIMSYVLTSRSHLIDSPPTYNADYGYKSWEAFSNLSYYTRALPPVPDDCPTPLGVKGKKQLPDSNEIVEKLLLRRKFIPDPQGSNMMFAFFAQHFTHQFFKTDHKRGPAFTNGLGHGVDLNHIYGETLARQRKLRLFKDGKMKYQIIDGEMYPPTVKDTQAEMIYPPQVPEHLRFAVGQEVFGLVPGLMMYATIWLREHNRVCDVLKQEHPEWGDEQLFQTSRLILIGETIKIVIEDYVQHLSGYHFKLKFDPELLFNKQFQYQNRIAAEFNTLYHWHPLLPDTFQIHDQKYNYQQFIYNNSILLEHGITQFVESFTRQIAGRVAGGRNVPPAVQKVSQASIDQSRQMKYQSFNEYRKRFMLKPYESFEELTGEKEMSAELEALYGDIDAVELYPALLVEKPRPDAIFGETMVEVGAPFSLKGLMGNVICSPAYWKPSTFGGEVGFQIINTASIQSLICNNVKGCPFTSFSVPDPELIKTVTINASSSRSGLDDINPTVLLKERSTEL
The test is described as follows: biochemical. Particulars: read-out: % inhibition at 32 nM.

Test [3] deals with T1, COX-1. Kind of test: O2 uptake cyclooxygenase assay, single concentration. The test is classed as biochemical. Conditions: for inhibition at 100 µg/mL: read-out: % inhibition at 100 μg/mL.
Test [4] has as its target T2, COX-2. Described as above. Type of test: biochemical. Particulars: read-out: % inhibition at 100 μg/mL.

Structures are written as SMILES.

On to `CC(=O)Oc1ccccc1C(=O)O` [Aspirin], for which the “% inhibition at 60 μM” value on COX-1 [1] is 69. Take `CS(=O)(=O)c1ccc(C2=C(c3ccccc3)C(=O)OC2)cc1` [Vioxx]: at COX-2 [2], the inhibition at 0.032 µM was 91%. As to `O=Cc1cccc(O)c1O` [compound 5, 2,3-dihydroxy benzaldehyde], on COX-1 [3], the inhibition at 100 µg/mL turned out to be 68%. Take `O=Cc1cc(O)ccc1O` [compound 7, 2,5-dihydroxy benzaldehyde]: the inhibition at 100 µg/mL on COX-2 [4] worked out at 61%.

With `O=Cc1cc(O)cc(O)c1` [compound 9, 3,5-dihydroxy benzaldehyde], the inhibition at 100 µg/mL on COX-1 [3] stood at 82%.

Take `O=Cc1c(O)cc(O)cc1O` [compound 11, 2,4,6-trihydroxy benzaldehyde]: the “% inhibition at 100 μg/mL” value at COX-1 [3] is recorded as 86.

As to `COc1ccccc1C=O` [compound 14, Compound 14], the inhibition at 100 µg/mL at COX-1 [3] came to 83%.

Regarding `COc1cc(C=O)cc(OC)c1` [compound 21, Compound 21], at COX-1 [3], the inhibition at 100 µg/mL amounted to 85%.
